This data set is described as follows: elimination curves of cannabinoids after ingestion (FIG. 2). In kind it is in vivo. To be noted: time of Test 2 (which may be two hours after cannabinoid ingestion). From the text: Referring now to FIG. 1, a chart is shown of elimination curves of various cannabinoids. […] The relative amounts of cannabinoid metabolites (e.g., intermediate or final breakdown products of cannabinoid compounds in the body) will also vary with time after an ingestion event.
As previously referenced, the relative amounts of one cannabinoid compound to another and/or metabolites thereof will vary with time after an ingestion event because their different half-lives in the body. As such, a pattern of compounds captured with a system herein at time point that is closer to the time of ingestion will be different than a pattern of compounds captured at a later time. Referring now to FIG. 2, a chart is shown of elimination curves of various cannabinoids. […] In this example, exemplary test times are shown in the form of Test 1, Test 2, and Test 3, with each test being progressively spaced out farther away in time from the time of ingestion. […] Because of this, patterns as identified by systems herein are different at each test time. For example, at the time of Test 1 (which may be a half-hour after cannabinoid ingestion) the amount of CBN is roughly 80 to 90 percent of the amount of THC. In contrast, at the time of Test 2 (which may be two hours after cannabinoid ingestion) the amount of CBN is only about 50 percent of the amount of THC. […]

Consider `CCCCCc1cc(O)c2c(c1)OC(C)(C)c1ccc(C)cc1-2` [CBN, cannabinol], for which the “amount of CBN as percent of the amount of THC” value was “about 50%”.

Source of the values: patent publication US20250160678A1, “GRAPHENE SENSOR SYSTEMS FOR C[…] ANALYSIS” (VOCxI Health, Inc., priority 2023, published 2025).
